Test results as given in patent US11654102B2, “Cosmetic composition comprising vetiver root extract” (GIVAUDAN SA, priority 2018, dated 2023).

Assay: Solubility of zizanoic acid in water
Format: physicochemical
Settings: in presence of the other substances present in the extract

solubility of zizanoic acid in water: improved
Structure (SMILES): C=C1[C@H]2CC[C@H](C(=O)O)[C@@]23CC[C@H](C3)C1(C)C [zizanoic acid]
